What all share (type): in vivo
For data set [1], the system named is Silverleaf Whitefly (Bemisia Argentifolii). Briefly: Silverleaf whitefly spray test on cotton plants. As to conditions: at 300 ppm; cotton plants sprayed; 3 days after treatment. The source says:
B.8 Silverleaf Whitefly (Bemisia Argentifolii)
The active compounds were formulated in cyclohexanone as a 10,000 ppm solution supplied in tubes. The tubes were inserted into an automated electrostatic sprayer equipped with an atomizing nozzle and they served as stock solutions for which lower dilutions were made in 50% acetone:50% water (v/v). A nonionic surfactant (Kinetic) was included in the solution at a volume of 0.01% (v/v).
Cotton plants at the cotyledon stage (one plant per pot) were sprayed by an automated electrostatic plant sprayer equipped with an atomizing spray nozzle. The plants were dried in the sprayer fume hood and then removed from the sprayer. Each pot was placed into a plastic cup and about 10 to 12 whitefly adults (approximately 3-5 days old) were introduced. The insects were collected using an aspirator and a nontoxic Tygon® tubing connected to a barrier pipette tip. The tip, containing the collected insects, was then gently inserted into the soil containing the treated plant, allowing insects to crawl out of the tip to reach the foliage for feeding. Cups were covered with a reusable screened lid. […] Mortality was assessed 3 days after treatment, compared to untreated control plants.

Data set [2] has as its system Colorado Potato Beetle (Leptinotarsa Decemlineata). Briefly: Colorado potato beetle test on sprayed eggplant foliage. As to conditions: at 10 ppm, 4 days after treatment. The procedure: B.13 Colorado Potato Beetle (Leptinotarsa Decemlineata)
(§1) The active compounds were formulated in cyclohexanone as a 10,000 ppm solution supplied in tubes. The tubes were inserted into an automated electrostatic sprayer equipped with an atomizing nozzle and they served as stock solutions for which lower dilutions were made in 50% acetone:50% water (v/v). A nonionic surfactant (Kinetic®) was included in the solution at a volume of 0.01% (v/v).
Eggplants were grown 2 plants to a pot and were selected for treatment at the 1st true leaf stage. Test solutions were sprayed onto the foliage by an automated electrostatic plant sprayer equipped with an atomizing spray nozzle. The plants were dried in the sprayer fume hood and then removed from the sprayer. The treated foliage was then cut and removed from the pot and placed in a 5-inch Petri dish lined with moistened filter paper. Five beetle larvae were introduced into each Petri dish and the dish was covered by a Petri dish lid. Petri dishes were maintained in a growth room at 25° C. and 20-40% relative humidity for 4 days, avoiding direct exposure to fluorescent light (24 hour photoperiod) to prevent trapping of heat inside the dishes. Mortality and reduced feeding were assessed 4 days after treatment, compared to untreated control plants.

Data set [3] has as its system boll weevil (Anthonomus grandis). Briefly: Boll weevil microtiter plate test on insect diet with eggs. As to conditions: 120 h, sprayed onto insect diet, egg and larval mortality after 5 days, read-out: mortality in comparison with untreated controls. The procedure:
B.12 Boll Weevil (Anthonomus Grandis)
For evaluating control of boll weevil (Anthonomus grandis) the test unit consisted of 24-well-microtiter plates containing an insect diet and 20-30 A. grandis eggs.
The compounds were formulated using a solution containing 75% v/v water and 25% v/v DMSO. Different concentrations of formulated compounds were sprayed onto the insect diet at 20 μl, using a custom built micro atomizer, at two replications. After application, microtiter plates were incubated at about 23±1° C. and about 50±5% relative humidity for 5 days. Egg and larval mortality was then visually assessed.

The test system of data set [4] is Diamond Back Moth (Plutella Xylostella). In words: Diamond back moth leaf-dip test on Chinese cabbage. As to conditions: foliar, mortality recorded 24, 72 and 120 hours after treatment, read-out: mortality in comparison with untreated controls. The procedure:
B.3 Diamond Back Moth (Plutella Xylostella)
Leaves of Chinese cabbage were dipped in test solution and air-dried. Treated leaves were placed in petri dished lined with moist filter paper. Mortality was recorded 24, 72, and 120 hours after treatment.

Data set [5] relates to tobacco budworm (Heliothis virescens). In words: Tobacco budworm microtiter plate test on insect diet with eggs. As to conditions: 120 h, sprayed onto insect diet, egg and larval mortality after 5 days, read-out: mortality in comparison with untreated controls. The procedure:
B.11 Tobacco Budworm (Heliothis Virescens) I
For evaluating control of tobacco budworm (Heliothis virescens) the test unit consisted of 96-well-microtiter plates containing an insect diet and 15-25 H. virescens eggs. The compounds were formulated using a solution containing 75% v/v water and 25% v/v DMSO. Different concentrations of formulated compounds were sprayed onto the insect diet at 10 μl, using a custom built micro atomizer, at two replications.
(§2) After application, microtiter plates were incubated at about 28±1° C. and about 80±5% relative humidity for 5 days. Egg and larval mortality was then visually assessed.

Data set [6] concerns Mediterranean fruitfly (Ceratitis capitata). Briefly: Mediterranean fruitfly microtiter plate test on insect diet with eggs. To be noted: 120 h, sprayed onto insect diet, egg and larval mortality after 5 days, read-out: mortality in comparison with untreated controls. The procedure: B.5 Mediterranean Fruitfly (Ceratitis Capitata)
For evaluating control of Mediterranean fruitfly (Ceratitis capitata) the test unit consisted of microtiter plates containing an insect diet and 50-80 C. capitata eggs.
The compounds were formulated using a solution containing 75% v/v water and 25% v/v DMSO. Different concentrations of formulated compounds were sprayed onto the insect diet at 5 μl, using a custom built micro atomizer, at two replications.
as §2

In data set [7] the test system is green peach aphid (Myzus persicae). Briefly: Green peach aphid systemic test, artificial diet in 96-well plates. As to conditions: 72 h, 3 days, read-out: mortality in comparison with untreated controls. The source says:
B.4 Green Peach Aphid (Myzus Persicae)
For evaluating control of green peach aphid (Myzus persicae) through systemic means the test unit consisted of 96-well-microtiter plates containing liquid artificial diet under an artificial membrane.
The compounds were formulated using a solution containing 75% v/v water and 25% v/v DMSO. Different concentrations of formulated compounds were pipetted into the aphid diet, using a custom built pipetter, at two replications.
After application, 5-8 adult aphids were placed on the artificial membrane inside the microtiter plate wells. The aphids were then allowed to suck on the treated aphid diet and incubated at about 23±1° C. and about 50±5% relative humidity for 3 days. Aphid mortality and fecundity was then visually assessed.

The test system of data set [8] is Red Spider Mite (Tetranychus Kanzawai). In words: Red spider mite spray test on potted cowpea beans. As to conditions: cowpea beans sprayed, after 72 h, read-out: mortality in comparison with untreated controls. The procedure:
B.14 Red Spider Mite (Tetranychus Kanzawai)
The active compound was dissolved at the desired concentration in a mixture of 1:1 (v/v) distilled water:acetone. A surfactant (Alkamuls® EL 620) was added at the rate of 0.1% (v/v).
Potted cowpea beans of 7-10 days of age were cleaned with tap water and sprayed with 5 ml of the test solution using air driven hand atomizer. The treated plants were allowed to air dry and afterwards inculated with 20 or more mites by clipping a cassaya leaf section with known mite population. Treated plants were placed inside a holding room at about 25-27° C. and about 50-60% relative humidity.
Mortality was determined by counting the live mites 72 HAT. Percent mortality was assessed after 72 h.

Data set [9] deals with vetch aphid (Megoura viciae). In words: Vetch aphid test on broad bean leaf disks in 24-well plates. As to conditions: foliar, 120 h, sprayed onto leaf disks, 5 days, read-out: mortality in comparison with untreated controls. The procedure: B.10 Vetch Aphid (Megoura Viciae)
For evaluating control of vetch aphid (Megoura viciae) through contact or systemic means the test unit consisted of 24-well-microtiter plates containing broad bean leaf disks.
The compounds were formulated using a solution containing 75% v/v water and 25% v/v DMSO. Different concentrations of formulated compounds were sprayed onto the leaf disks at 2.5 μl, using a custom built micro atomizer, at two replications.
After application, the leaf disks were air-dried and 5-8 adult aphids placed on the leaf disks inside the microtiter plate wells. The aphids were then allowed to suck on the treated leaf disks and incubated at about 23±1° C. and about 50±5% relative humidity for 5 days. Aphid mortality and fecundity was then visually assessed.

Data set [10] has as its system Orchid Thrips (Dichromothrips corbetti). In words: Orchid thrips floral-immersion test. As to conditions: 96 h, after 4 days, read-out: mortality in comparison with untreated controls. The procedure: B.6 Orchid Thrips (Dichromothrips corbetti)
Dichromothrips corbettiadults used for bioassay were obtained from a colony maintained continuously under laboratory conditions. For testing purposes, the test compound was diluted to a concentration of 500 ppm (wt compound: vol diluent) in a 1:1 mixture of acetone:water (vol:vol), plus 0.01% vol/vol Kinetic® surfactant.
Thrips potency of each compound was evaluated by using a floral-immersion technique. Plastic petri dishes were used as test arenas. All petals of individual, intact or chid flowers were dipped into treatment solution and allowed to dry. Treated flowers were placed into individual petri dishes along with 10-15 adult thrips. The petri dishes were then covered with lids. All test arenas were held under continuous light and a temperature of about 28° C. for duration of the assay. After 4 days, the numbers of live thrips were counted on each flower, and along inner walls of each petri dish. The level of thrips mortality was extrapolated from pre-treatment thrips numbers.

Data set [11] relates to Southern Armyworm (Spodoptera Eridania). Briefly: Southern armyworm spray test on lima bean plants. To be noted: foliar, 96 h, lima bean foliage sprayed, 4 days after treatment, read-out: mortality in comparison with untreated controls. The procedure:
B.9 Southern Armyworm (Spodoptera Eridania)
as §1
Lima bean plants (variety Sieva) were grown 2 plants to a pot and selected for treatment at the 1st true leaf stage. Test solutions were sprayed onto the foliage by an automated electrostatic plant sprayer equipped with an atomizing spray nozzle. The plants were dried in the sprayer fume hood and then removed from the sprayer. Each pot was placed into perforated plastic bags with a zip closure. About 10 to 11 armyworm larvae were placed into the bag and the bags zipped closed. Test plants were maintained in a growth room at about 25° C. and about 20-40% relative humidity for 4 days, avoiding direct exposure to fluorescent light (24 hour photoperiod) to prevent trapping of heat inside the bags. Mortality and reduced feeding was assessed 4 days after treatment, compared to untreated control plants.

For data set [12], the system named is Cowpea Aphid (Aphis Craccivora). In words: Cowpea aphid spray test on potted cowpea plants. As to conditions: cowpea plants sprayed, population reduction assessed after 24, 72 and 120 hours, read-out: mortality in comparison with untreated controls. The procedure: B.2 Cowpea Aphid (Aphis Craccivora)
Potted cowpea plants colonized with approximately 100-150 aphids of various stages were sprayed after the pest population had been recorded. Population reduction was assessed after 24, 72, and 120 hours.

`O=C(NCC(F)(F)F)NN=Cc1ccc(C2=NCC(c3cc(Cl)cc(Cl)c3)(C(F)(F)F)C2)cc1Cl` (racemic) [Compound 2-3]: the “mortality in comparison with untreated controls” value in [1] is listed as “at least 75%”.

`CNC(=O)NN=Cc1ccc(C2=NCC(c3cc(Cl)cc(Cl)c3)(C(F)(F)F)C2)cc1Cl` (racemic) [Compound 2-4]: the “mortality in comparison with untreated controls” value in data set [2] is recorded as “at least 75%”.

Consider `Cc1cc(C2=NCC(c3cc(Cl)cc(Cl)c3)(C(F)(F)F)C2)ccc1/C=N/NC(=O)NCC(F)(F)F` (stereo not drawn) [Compound 1-3, 1-[(E)-[4-[3-(3,5-dichlorophenyl)-3-(trifluoromethyl)-2,4-dihydropyrrol-5-yl]-2-methyl-phenyl]methyleneamino]-3-(2,2,2-trifluoroethyl)urea], for which the mortality at 2500 ppm in data set [3], in data set [5], in [6], in [7] and in data set [9] was no less than 75% each time. Further, the mortality at 500 ppm in data set [4], in data set [8], in [10] and in data set [12] was no less than 75% throughout. Further, the mortality (in general, the share of the test organisms that died) at 1 ppm in data set [11] is no less than 75%.

The record behind these values is patent US8653000B2, “Imine substituted 2,4-diaryl-pyrroline derivatives as pesticides” (BASF SE, priority 2010, dated 2014).
